For test [1], the target named is T1, human GLP-1 receptor (Homo sapiens, UniProt P43220).
T1 construct: expressed in transfected cells; host or cells: BHK cells (parent line BHKTS13), clone FCW467-12A; membrane preparation
In words: GLP-1 receptor binding: competitive binding assay (125I-GLP-1, SPA) on isolated membranes at low and high HSA. Here is the method:
The purpose of this example is to test the receptor binding of the GLP-1 derivatives in vitro. The receptor binding is a measure of affinity of a derivative for the human GLP-1 receptor.
Each derivative is added in a series of concentrations to isolated membranes containing the human GLP-1 receptor and displacement of the labelled ligand is monitored. The receptor binding is reported as the concentration at which half of the labelled ligand is displaced from the receptor, the IC50 value.
Buffer 1 consisted of 20 mM Na-HEPES plus 10 mM EDTA and pH was adjusted to 7.4. Buffer 2 consisted of 20 mM Na-HEPES plus 0.1 mM EDTA and pH was adjusted to 7.4. Assay buffer consisted of 50 mM HEPES supplemented with 5 mM EGTA, 5 mM MgCl2, 0.005% Tween 20 and pH was adjusted to 7.4. An 8% albumin stock consisted of HSA dissolved at 8% (w/v) in assay buffer. An 0.02% albumin stock consisted of HSA dissolved at 0.02% (w/v) in assay buffer.
The cells express the human GLP-1 receptor.
The cells were grown at 5% CO2 in DMEM, 10% fetal calf serum, 1% Pen/Strep (Penicillin/Streptomycin) and 1.0 mg/ml of the selection marker G418. To make a membrane preparation the cells were grown to approximately 80% confluence. The cells were washed twice in phosphate-buffered saline and harvested. The cells were pelleted using a brief centrifugation and the cell pellet was kept on ice. […] The homogenate was centrifuged for 15 minutes. The pellet was re-suspended (homogenised) in 10 ml buffer 2 and centrifuged. This step was repeated once more. The resulting pellet was re-suspended in buffer 2 and the protein concentration was determined. The membranes were aliquoted and stored at minus 80° C.
1. […] Assay continued with step 3.
2. For the receptor binding assay in the presence of high HSA (2%) 50 μl of the 8% albumin stock was added to each well of an assay plate. Assay continued with step 3.
4. Cell membrane aliquots were thawed and diluted to their working concentration. Fifty μl were added to each well in the assay plate.
5. WGA SPA beads were suspended in assay buffer at 20 mg/ml. The suspension was diluted to 10 mg/ml in assay buffer just prior to addition to the assay plate. Fifty μl were added to each well in the assay plate.
6. […] A 25 μl aliquot was reserved for measuring total counts/well.
7. The assay plate was incubated for 2 h at 30° C.
8. The assay plate was centrifuged for 10 min.
9. The assay plate was read in a Packard TopCount NXT instrument.
The data from the TopCount instrument were transferred to GraphPad Prism software. Individual replicates were analysed using non-linear regression. IC50 values were calculated by the software and reported in nM. The reported values are averages of all of the measured values for each compound.

In test [2] the target is T1, human GLP-1 receptor. In words: In vitro potency: CRE luciferase reporter gene assay in BHK cells expressing the human GLP-1 receptor. The note with it: whole cell reporter gene assay, BHK cells, human GLP-1 receptor; average of at least two replicates; read-out: EC50. Format: cell-based. Here is the method:
The purpose of this example is to test the activity, or potency, of the GLP-1 derivatives in vitro. The in vitro potency is the measure of human GLP-1 receptor activation in a whole cell assay.
In vitro potency was determined by measuring the response of the human GLP-1 receptor in a reporter gene assay. The assay was performed in a stably transfected BHK cell line that expresses the human GLP-1 receptor and contains the DNA for the cAMP response element (CRE) coupled to a promoter and the gene for firefly luciferase (CRE luciferase). When the human GLP-1 receptor is activated it results in the production of cAMP, which in turn results in the luciferase protein being expressed. When assay incubation is completed the luciferase substrate (luciferin) is added and the enzyme converts luciferin to oxyluciferin to produce bioluminescence. The luminescence is measured as the readout for the assay.
The cells were cultured at 5% CO2 in cell culture medium. They were aliquoted and stored in liquid nitrogen. Before each assay an aliquot was taken up and washed twice in PBS before being suspended at the desired concentration in the assay specific buffer.
The assay buffer consisted of 2% ovalbumin and 0.2% Pluronic F-68 in assay medium.
1) Cell stocks were thawed in a 37° C. water bath.
2) Cells were washed three times in PBS.
3) Cells were counted and adjusted to 5×10^3 cells/50 μl (1×10^5 cells/ml) in assay medium. A 50 μl aliquot of cells was transferred to each well in the assay plate.
4) Stocks of the test compounds and reference compounds were diluted to a concentration of 0.2 μM in assay buffer. […] 8) A 100 μl aliquot of steadylite plus reagent was added to each well of the assay plate. 9) Each assay plate was covered with aluminum foil to protect it from light and shaken for 30 min at room temperature. 10) Each assay plate was read in a BioTek Synergy 2 Multi-Mode Reader. Calculations and Results
The data from the BioTek Synergy 2 Multi-Mode Reader were transferred to GraphPad Prism software. The software performs a non-linear regression (log(agonist) vs response (three parameters)).
A minimum of two replicates were measured for each sample. The reported EC50 values are averages of all of the measured values for each compound.
On the technique in general: In a reporter assay the amount or activity of a reporter protein is the signal.

Where [3] appears, read: high HSA (2.0% final assay concentration), read-out: High HSA IC50.

Where two headings read alike, the source gives them in different places. Non-standard residues stand in square brackets, D forms with d. Residues, ends and D or L forms follow the SMILES beside them. Groups on a side chain read outwards from the residue. *: point of attachment. X2 = O=C(O)CCCCCCCCCCCCCCCCCCC(=O)NC[C@H]1CC[C@H](C(=O)N[C@@H](CCC(=O)NCCCN(CCCNC(=O)CC[C@H](NC(=O)[C@H]2CC[C@H](CNC(=O)CCCCCCCCCCCCCCCCCCC(=O)O)CC2)C(=O)O)CC(=O)*)C(=O)O)CC1; AEEA = NCCOCCOCC(=O)O; Aib = CC(C)(N)C(=O)O

Broadly, the IC50 is the concentration that inhibits the measured activity by half. As usually defined, the EC50 is the concentration that produces a half-maximal response.

T1 sequence (P43220 24-463): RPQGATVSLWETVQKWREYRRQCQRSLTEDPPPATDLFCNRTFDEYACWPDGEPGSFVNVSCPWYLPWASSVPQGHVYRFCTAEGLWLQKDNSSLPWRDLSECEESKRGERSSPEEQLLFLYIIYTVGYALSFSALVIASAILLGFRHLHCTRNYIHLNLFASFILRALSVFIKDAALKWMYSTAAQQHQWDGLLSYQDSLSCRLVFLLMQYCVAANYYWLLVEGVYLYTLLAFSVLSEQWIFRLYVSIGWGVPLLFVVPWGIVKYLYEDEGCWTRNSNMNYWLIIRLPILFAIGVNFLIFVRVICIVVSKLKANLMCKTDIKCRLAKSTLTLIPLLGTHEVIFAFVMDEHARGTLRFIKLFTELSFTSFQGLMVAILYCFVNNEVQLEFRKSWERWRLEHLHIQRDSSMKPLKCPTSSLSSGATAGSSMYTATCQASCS

Consider `CC[C@H](C)[C@H](NC(=O)[C@H](Cc1ccccc1)NC(=O)[C@H](CCC(=O)O)NC(=O)[C@H](CCCNC(=N)N)NC(=O)[C@H](C)NC(=O)[C@H](C)NC(=O)[C@H](CCC(N)=O)NC(=O)[C@H](CCC(=O)O)NC(=O)[C@H](CCC(=O)O)NC(=O)[C@H](CC(C)C)NC(=O)[C@H](Cc1ccc(O)cc1)NC(=O)[C@H](CO)NC(=O)[C@H](CO)NC(=O)[C@@H](NC(=O)[C@H](CC(=O)O)NC(=O)[C@H](CO)NC(=O)[C@@H](NC(=O)[C@H](Cc1ccccc1)NC(=O)[C@@H](NC(=O)CNC(=O)[C@H](CCC(=O)O)NC(=O)C(C)(C)NC(=O)[C@@H](N)Cc1c[nH]cn1)[C@@H](C)O)[C@@H](C)O)C(C)C)C(=O)N[C@@H](C)C(=O)N[C@@H](Cc1c[nH]c2ccccc12)C(=O)N[C@@H](CC(C)C)C(=O)N[C@H](C(=O)N[C@@H](CCCNC(=N)N)C(=O)NCC(=O)N[C@@H](CCCNC(=N)N)C(=O)N[C@@H](CCCCNC(=O)CN(CCCNC(=O)CCOCCOCCOCCOCCOCCOCCOCCOCCOCCOCCOCCOCCNC(=O)[C@@H](N)CCCCNC(=O)[C@@H](N)CCCCNC(=O)CCCCCCCCCCCCCCCCCCC(=O)O)CCCNC(=O)CCOCCOCCOCCOCCOCCOCCOCCOCCOCCOCCOCCOCCNC(=O)[C@@H](N)CCCCNC(=O)[C@@H](N)CCCCNC(=O)CCCCCCCCCCCCCCCCCCC(=O)O)C(=O)O)C(C)C` [Example 8, N{Epsilon-37}-[2-[bis[3-[3-[2-[2-[2-[2-[2-[2-[2-[2-[2-[2-[2-[2-[[(2S)-2-amino-6-[[(2S)-2-amino-6-(19-carboxynonadecanoylamino)hexanoyl]amino]hexanoyl]amino]ethoxy]ethoxy]ethoxy]ethoxy]ethoxy]ethoxy]ethoxy]ethoxy]ethoxy]ethoxy]ethoxy]ethoxy]propanoylamino]propyl]amino]acetyl]-[Aib8,Glu22,Arg26,Arg34,Lys37]-GLP-1-(7-37)-peptide], for which the IC50 was 27 nM at human GLP-1 receptor [1] (setting [3]) and 0.19 nM at human GLP-1 receptor [1] (low HSA (max. 0.001% final assay concentration), read-out: Low HSA IC50). Also, the EC50 at human GLP-1 receptor [2] was 10 pM.

For the compound `CC[C@H](C)[C@H](NC(=O)[C@H](Cc1ccccc1)NC(=O)[C@H](CCC(=O)O)NC(=O)[C@H](CCCNC(=N)N)NC(=O)[C@H](C)NC(=O)[C@H](C)NC(=O)[C@H](CCC(N)=O)NC(=O)[C@H](CCC(=O)O)NC(=O)[C@H](CCC(=O)O)NC(=O)[C@H](CC(C)C)NC(=O)[C@H](Cc1ccc(O)cc1)NC(=O)[C@H](CO)NC(=O)[C@H](CO)NC(=O)[C@@H](NC(=O)[C@H](CC(=O)O)NC(=O)[C@H](CO)NC(=O)[C@@H](NC(=O)[C@H](Cc1ccccc1)NC(=O)[C@@H](NC(=O)CNC(=O)[C@H](CCC(=O)O)NC(=O)C(C)(C)NC(=O)[C@@H](N)Cc1c[nH]cn1)[C@@H](C)O)[C@@H](C)O)C(C)C)C(=O)N[C@@H](C)C(=O)N[C@@H](Cc1c[nH]c2ccccc12)C(=O)N[C@@H](CC(C)C)C(=O)N[C@H](C(=O)N[C@@H](CCCNC(=N)N)C(=O)NCC(=O)N[C@@H](CCCNC(=N)N)C(=O)N[C@@H](CCCCNC(=O)CN(CCCNC(=O)COCCOCCNC(=O)COCCOCCNC(=O)COCCOCCNC(=O)COCCOCCNC(=O)COCCOCCNC(=O)CC[C@H](NC(=O)[C@H]1CC[C@H](CNC(=O)CCCCCCCCCCCCCCCS(=O)(=O)O)CC1)C(=O)O)CCCNC(=O)COCCOCCNC(=O)COCCOCCNC(=O)COCCOCCNC(=O)COCCOCCNC(=O)COCCOCCNC(=O)CC[C@H](NC(=O)[C@H]1CC[C@H](CNC(=O)CCCCCCCCCCCCCCCS(=O)(=O)O)CC1)C(=O)O)C(=O)O)C(C)C` [Example 23, N{Epsilon-37}-[2-[bis[3-[[2-[2-[2-[[2-[2-[2-[[2-[2-[2-[[2-[2-[2-[[2-[2-[2-[[(4S)-4-carboxy-4-[[4-[(16-sulfohexadecanoylamino)methyl]cyclohexanecarbonyl]amino]butanoyl]amino]ethoxy]ethoxy]acetyl]amino]ethoxy]ethoxy]acetyl]amino]ethoxy]ethoxy]acetyl]amino]ethoxy]ethoxy]acetyl]amino]ethoxy]ethoxy]acetyl]amino]propyl]amino]acetyl]-[Aib8,Glu22,Arg26,Arg34,Lys37]-GLP-1-(7-37)-peptide], the IC50 turned out to be 0.14 nM on human GLP-1 receptor [1] (Low HSA IC50, low HSA (max. 0.001% final assay concentration)) and 16 nM at human GLP-1 receptor [1] (setting [3]). Moreover, the EC50 at human GLP-1 receptor [2] was 1.4 pM.

Consider `CC[C@H](C)[C@H](NC(=O)[C@H](Cc1ccccc1)NC(=O)[C@H](CCC(=O)O)NC(=O)[C@H](CCCNC(=N)N)NC(=O)[C@H](C)NC(=O)[C@H](C)NC(=O)[C@H](CCC(N)=O)NC(=O)[C@H](CCC(=O)O)NC(=O)[C@H](CCC(=O)O)NC(=O)[C@H](CC(C)C)NC(=O)[C@H](Cc1ccc(O)cc1)NC(=O)[C@H](CO)NC(=O)[C@H](CO)NC(=O)[C@@H](NC(=O)[C@H](CC(=O)O)NC(=O)[C@H](CO)NC(=O)[C@@H](NC(=O)[C@H](Cc1ccccc1)NC(=O)[C@@H](NC(=O)CNC(=O)[C@H](CCC(=O)O)NC(=O)C(C)(C)NC(=O)[C@@H](N)Cc1c[nH]cn1)[C@@H](C)O)[C@@H](C)O)C(C)C)C(=O)N[C@@H](C)C(=O)N[C@@H](Cc1c[nH]c2ccccc12)C(=O)N[C@@H](CC(C)C)C(=O)N[C@H](C(=O)N[C@@H](CCCNC(=N)N)C(=O)NCC(=O)N[C@@H](CCCCNC(=O)COCCOCCNC(=O)COCCOCCNC(=O)COCCOCCNC(=O)COCCOCCNC(=O)COCCOCCNC(=O)COCCOCCNC(=O)CN(CCCNC(=O)CC[C@H](NC(=O)[C@H]1CC[C@H](CNC(=O)CCCCCCCCCCCCCCCCCCC(=O)O)CC1)C(=O)O)CCCNC(=O)CC[C@H](NC(=O)[C@H]1CC[C@H](CNC(=O)CCCCCCCCCCCCCCCCCCC(=O)O)CC1)C(=O)O)C(=O)NCC(=O)O)C(C)C` [Example 30] (H-H[Aib]EGTFTSDVSSYLEEQAAREFIAWLVRGK([AEEA-AEEA-AEEA-AEEA-AEEA-AEEA-X2])G-OH; N-terminus and C-terminus assumed), for which the IC50 on human GLP-1 receptor [1] (setting [3]) was 4.1 nM.

(Values after US11572398B2, “GLP-1 derivatives and uses thereof” (Novo Nordisk A/S, priority 2014, dated 2023).)
